Source: patent publication US20120022121A1, “INDOLES, DERIVATIVES AND ANALOGS THEREOF AND USES THEREFOR” (priority 2007, published 2012)

What was measured:
PPC-1 [1] = experiment: Cytotoxicity assay (SRB, 96 h); assay type: cell-based; details: Homo sapiens, PPC-1, 96 h
A375 = experiment: Cytotoxicity assay (SRB, 48 h); assay type: cell-based, human; details: Homo sapiens
PC-3 [2] = experiment: Cytotoxicity assay (SRB, 96 h); assay type: cell-based; details: Homo sapiens, PC-3, 96 h
WM164 = experiment: Cytotoxicity assay (SRB, 48 h); assay type: cell-based, human; details: Homo sapiens, WM164 melanoma
LNCaP [3] = experiment: Cytotoxicity assay (SRB, 96 h); assay type: cell-based; details: Homo sapiens
Du 145 = experiment: Cytotoxicity assay (SRB, 96 h); assay type: cell-based; details: Homo sapiens; Du 145, 96 h
PC-3 [4] = experiment: Cell viability SRB assay, 96 h; assay type: cell-based; details: Homo sapiens, PC-3, 96 h
Description: (§1) Cell viability (LNCaP, PC-3 prostate, DU145, PPC-1, and TSU-Pr1 prostate cancer cell lines, HT-29 colon cancer cell line, and MCF-7 breast cancer cell line) was quantitated using the sulforhodamine B (SRB) assay after 96 h coincubation with different concentrations of compound in 96-well plates. Cell viability of leukemia cells (K562 and doxorubicin-resistant K562/Dox) was quantitated by MTT assay after 96 h coincubation with different concentrations of compound in 96-well plates. Drug-induced apoptosis was determined by anti-histone ELISA assay and DNA laddering. Cell cycle progression was assessed by propidium iodide staining and fluorescence-activated cell sorting (FACS) analysis. In vitro tubulin polymerization assay was determined by CytoDYNAMIX ScreenTM3 (CDS-03) kits according to the manufacturer's instructions. Anti-apoptosis protein (Bcl-2 and Bcl-xl) and pro-apoptosis protein (Bax) were examined in LNCaP and PC-3 after 24 h incubation with different concentrations of compound 13 by Western blot assay. In vivo PC-3 xenograft studies were conducted by i.v. dosing of 50 mg/kg, 100 mg/kg and 150 mg/kg for 2 weeks.
(§2) Cells were plated in 96-well plates at a density of 800-5,000 cells/well, depending on the cell line, in their required growth media containing 10% fetal bovine serum. Preliminary studies were performed with each cell line using a variety of cell densities and incubation times to determine appropriate seeding densities. The compound of interest was dissolved in DMSO, diluted in cell culture medium (final DMSO concentration was less than 0.5% v/v), and added to quadruplicate wells at final concentrations ranging from 0 to 100 μM. Control wells to which only drug-free vehicle was added were included as negative controls.
(§3) Cells were incubated for 96 hour at 37° C. in a humidified atmosphere containing 5% carbon dioxide.
(§4) Cells were stained with SRB solution. […] WinNonlin was provided by a Pharsight Academic License to The Ohio State University.

LNCaP [5] = experiment: Cell viability SRB assay, 96 h; assay type: cell-based; details: Homo sapiens
Description: as §1, §2, §3, §4

PPC-1 [6] = experiment: Cell viability SRB assay, 96 h; assay type: cell-based; details: Homo sapiens, PPC-1, 96 h
Description: as §1, §2, §3, §4

DU-145 = experiment: Cell viability SRB assay, 96 h; assay type: cell-based; details: Homo sapiens, DU-145, 96 h
Description: as §1, §2, §3, §4

[7] = system: melanoma and prostate cancer cell lines; experiment: Cytotoxicity assay (SRB), summary over the cell lines of Table 3; assay type: cell-based; details: Homo sapiens
TSU = experiment: Cell viability SRB assay, 96 h; assay type: cell-based; details: Homo sapiens, TSU (TSU-Pr1)
Description: as §1, §2, §3, §4

Row | SMILES | IC50 (PC-3 [4]) | IC50 (LNCaP [5]) | IC50 (PPC-1 [6]) | IC50 (DU-145) | other results
1 | COc1cc(C(=O)c2cc3ccc(Cl)cc3n2C)cc(OC)c1OC [Compound 119, (6-Chloro-1-methyl-1H-indol-2-yl)(3,4,5-trimethoxyphenyl)methanone] | – | – | – | – | IC50 (PPC-1 [1]): 4.33 ± 0.72 µM; IC50 (A375; A-375, A375 melanoma): 6.65 ± 0.33 µM; IC50 (PC-3 [2]): 3.76 ± 0.83 µM; IC50 (WM164): 8.08 ± 1.21 µM; IC50 (LNCaP [3]): 1.04 ± 0.25 µM; IC50 (Du 145): > 10 µM
2 | OC(c1cccc(-c2cc3ccccc3[nH]2)c1)c1cc2ccccc2[nH]1 (centres unmarked) [Compound 11, (1H-indol-2-yl)-[3-(1H-indol-2-yl)phenyl]methanol] | 13.5 µM | 5.6 µM | 3.8 µM | 11.6 µM | melting point: 82 to 85 °C
3 | COc1cc(C(=O)c2cc3cc(F)ccc3[nH]2)cc(OC)c1OC [Compound 117, (5-Fluoro-1H-indol-2-yl)(3,4,5-trimethoxyphenyl)methanone] | – | – | – | – | IC50 (PPC-1 [1]): 1 µM; IC50 (A375; A-375, 48 h, A375 melanoma): 2.21 µM; IC50 (PC-3 [2]): 9.16 µM; IC50 (WM164; WM164, 48 h): 2.26 µM; melting point: 196 to 198 °C; IC50 (LNCaP [3]): 8.63 µM; IC50 (Du 145): 3.42 µM
4 | COc1cc(C(=O)c2cc3ccc(Cl)cc3n2Cc2ccccc2)cc(OC)c1OC [Compound 120, (1-Benzyl-6-chloro-1H-indol-2-yl)(3,4,5-trimethoxyphenyl)methanone] | – | – | – | – | IC50 (PPC-1 [1]): > 10 µM; IC50 [7]: > 10 µM; IC50 (A375; A-375, 48 h, A375 melanoma): > 10 µM; IC50 (PC-3 [2]): > 10 µM; IC50 (WM164; WM164, 48 h): > 10 µM; IC50 (LNCaP [3]): > 10 µM; IC50 (Du 145): > 10 µM
5 | COc1ccc(C(=O)c2cccc(-c3cc4ccccc4[nH]3)c2)cc1 [Compound 84, [3-(1H-Indol-2-yl)-phenyl]-(4-methoxy-phenyl)-methanone] | 2.6 µM | 3.7 µM | 0.9 µM | 1.4 µM | –
6 | c1ccc2[nH]ccc2c1 [indole] | > 100 µM | > 100 µM | > 100 µM | > 100 µM | IC50 (TSU): > 100 µM
7 | O=S(=O)(c1ccccc1)n1c(Cc2cccc(-c3cc4ccccc4n3S(=O)(=O)c3ccccc3)c2)cc2ccccc21 [Compound 9, (1-Benzenesulfonyl-1H-indol-2-yl)-[3-(1-benzenesulfonyl-1H-indol-2-yl)phenyl]methane] | > 100 µM | > 100 µM | > 100 µM | > 100 µM | IC50 (TSU): > 100 µM; melting point: 76 to 78 °C
8 | COc1cc(C(=O)c2cc3ccc(C)cc3[nH]2)cc(OC)c1OC [Compound 116, (6-Methyl-1H-indol-2-yl)(3,4,5-trimethoxyphenyl)methanone] | – | – | – | – | IC50 (PPC-1 [1]): > 10 µM; IC50 (A375; A-375, 48 h, A375 melanoma): > 10 µM; IC50 (PC-3 [2]): > 10 µM; IC50 (WM164; WM164, 48 h): > 10 µM; melting point: 179 to 181 °C; IC50 (LNCaP [3]): > 10 µM; IC50 (Du 145): > 10 µM
9 | COc1cc(C(O)c2cccc(-c3cc4ccccc4n3S(=O)(=O)c3ccccc3)c2)cc(OC)c1OC (centres unmarked) [Compound 66, [3-(1-Benzenesulfonyl-1H-indol-2-yl)-phenyl]-(3,4,5-trimethoxy-phenyl)-methanol] | 45 µM | 10.1 µM | 35.3 µM | 61.5 µM | –
10 | COc1cc(-c2cccc(C(=O)c3cc4ccccc4n3S(=O)(=O)c3ccccc3)c2)cc(OC)c1OC [Compound 64, (1-Benzenesulfonyl-1H-indol-2-yl)-(3′,4′,5′-trimethoxy-biphenyl-3-yl)-methanone] | 29.2 µM | 4.9 µM | 44.7 µM | 29.2 µM | IC50 (TSU): 58.9 µM
11 | O=C(c1ccc(F)cc1)c1cccc(-c2ccc3[nH]ccc3c2)c1 [Compound 125, (4-Fluoro-phenyl)-[3-(1H-indol-5-yl)-phenyl]-methanone] | 2.7 µM | 2.78 µM | 0.63 µM | 5.73 µM | –
12 | COc1ccc2cc(C(=O)c3cc(OC)c(OC)c(OC)c3)n(S(=O)(=O)c3ccccc3)c2c1 [Compound 107, (6-Methoxy-1-(phenylsulfonyl)-1H-indol-2-yl)(3,4,5-trimethoxyphenyl)methanone] | – | – | – | – | IC50 (PPC-1 [1]): 1.05 µM; IC50 (A375; A-375, A375 melanoma): 8.22 µM; IC50 (PC-3 [2]): 2.66 µM; IC50 (WM164): > 10 µM; melting point: 156 to 158 °C; IC50 (LNCaP [3]): > 10 µM; IC50 (Du 145): > 10 µM
13 | O=C(c1ccccc1)c1cccc(-c2cc3ccccc3[nH]2)c1 [Compound 80A, [3-(1H-Indol-2-yl)-phenyl]-phenyl-methanone] | 2 µM | 1.74 µM | 1.52 µM | 2.12 µM | –
14 | COc1cc(C(O)c2cccc(-c3cc4ccccc4[nH]3)c2)cc(OC)c1OC (centres unmarked) [Compound 66A, [3-(1H-Indol-2-yl)-phenyl]-(3,4,5-trimethoxy-phenyl)-methanol] | 5.9 µM | 3.1 µM | 1.9 µM | 7.2 µM | –
15 | COC(=O)c1csc(C(=O)c2c[nH]c3ccccc23)n1 [Compound 59, methyl 2-(1H-indole-3-carbonyl)thiazole-4-carboxylate] | 90.4 ± 27.5 µM | 58.5 ± 14.3 µM | – | – | –
16 | COc1cc(-c2cccc(C(=O)c3cc4ccccc4[nH]3)c2)cc(OC)c1OC [Compound 65, (1H-Indol-2-yl)-(3′,4′,5′-trimethoxy-biphenyl-3-yl)-methanone] | 4.6 µM | 3 µM | 4.1 µM | 16.2 µM | –
17 | COc1cc(-c2cccc(C(O)c3cc4ccccc4n3S(=O)(=O)c3ccccc3)c2)cc(OC)c1OC (centres unmarked) [Compound 63, (1-Benzenesulfonyl-1H-indol-2-yl)-(3′,4′,5′-trimethoxy-biphenyl-3-yl)-methanol] | 11.6 µM | 4.2 µM | 21.8 µM | 38 µM | –
18 | COc1cc(C(=O)c2cccc(-c3cc4ccccc4n3S(=O)(=O)c3ccccc3)c2)cc(OC)c1OC [Compound 67, [3-(1-Benzenesulfonyl-1H-indol-2-yl)-phenyl]-(3,4,5-trimethoxy-phenyl)-methanone] | 9.2 µM | 7.8 µM | 68.5 µM | 18 µM | –
19 | O=C(c1ccc(F)cc1)c1cccc(-c2cc3ccccc3n2S(=O)(=O)c2ccccc2)c1 [Compound 126, [3-(1-Benzenesulfonyl-1H-indol-2-yl)-phenyl]-(4-fluoro-phenyl)-methanone] | 1.5 µM | 1.56 µM | 0.55 µM | 4.01 µM | –
20 | COc1cc(C(=O)c2cc3ccc(F)cc3n2S(=O)(=O)c2ccccc2)cc(OC)c1OC [Compound 106, (6-Fluoro-1-(phenylsulfonyl)-1H-indol-2-yl)(3,4,5-trimethoxyphenyl)methanone] | – | – | – | – | IC50 (PPC-1 [1]): > 10 µM; IC50 (A375; A-375, 48 h, A375 melanoma): > 10 µM; IC50 (PC-3 [2]): > 10 µM; IC50 (WM164; WM164, 48 h): > 10 µM; melting point: 171 to 173 °C; IC50 (LNCaP [3]): > 10 µM; IC50 (Du 145): > 10 µM
21 | OCc1cccc(-c2cc3ccccc3[nH]2)c1 [Compound 130] | 65.1 ± 5.3 µM | 23.8 ± 3 µM | 26.6 µM | 21.8 µM | –
